{"source": "patent US10550111B2", "about": "“Pyrimidine urea compound containing isoxazolines and use thereof” (SHENYANG SINOCHEM AGROCHEMICALS R&D CO., LTD, priority 2014, dated 2020);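 as to pre-emergence and post-emergence herbicidal activity against broad-leaf weeds and grass weeds: 0 means no visible effect and 100 means all weeds dead or not emerged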", "type_in_all_cases": "in vivo", "key": {"[1]": {"tested_on": "Abutilon theophrasti Medic.", "assay": "Bioassay of herbicidal activity in greenhouse (further screening)", "method": "(§1) Determination of herbicidal activity of compounds of the present invention against weeds was carried out by the following procedures:\n(§2) Seeds of monocotyledonous and dicotyledonous weeds were sown in nutrition soil in paper pot (7 cm diameter), covered with soil in 1 cm and grown in the greenhouse under good growth conditions (temperature, atmospheric humidity, water supply). The compounds of the present invention as emulsifiable concentrate, were applied in pre-emergence and post-emergence treatment by track sprayer (Engineer Research Ltd., pressure 1.95 kg/cm^2, volume 500 L/hm^2, track speed 1.48 km/h). Pre-emergence treatment was conducted after seeding 24 hours and post-emergence treatment was done when the respective weeds reached predetermined leaf stage (grass weed 2- to 3-leaf stage, broad-leaf weed 2- to 4-leaf stage), the state of growth of the respective weeds were visually observed to determine the growth inhibition rate (%) in accordance with the following evaluation standard.\n(§3) Growth inhibition rate (%): 0=no discernible action: 100=all weeds dead or not emerged."}, "[2]": {"tested_on": "Echinochloa crus-galli (L.) Beauv.", "assay": "Bioassay of herbicidal activity in greenhouse (further screening)", "method": "as §1, §2, §3"}, "[3]": {"tested_on": "Setaria glauca (L.) Beauv.", "assay": "Bioassay of herbicidal activity in greenhouse (further screening)", "method": "as §1, §2, §3"}, "Zinnia elegans Jacq.": {"tested_on": "Zinnia elegans Jacq.", "assay": "Bioassay of herbicidal activity in greenhouse (further screening)", "method": "as §1, §2, §3"}, "[4]": {"tested_on": "broad-leaf weeds and grass weeds", "assay": "General screening of herbicidal activity in greenhouse", "conditions": "1000 g a.i./hm^2", "method": "as §1, §2, §3"}}}
{"smiles": "Cn1c(C(F)(F)F)cc(=O)n(-c2cc(C3=NOC(C)(COS(C)(=O)=O)C3)c(Cl)cc2F)c1=O", "note": "(stereo not drawn) [Compound 88]", "values": [{"measurement": "Growth inhibition rate, Post-emergence treatment, Abutilon theophrasti Medic.", "setting": "[1]; dose 7.5 g a.i./hm^2", "value": 98, "unit": "%"}, {"measurement": "Growth inhibition rate, Post-emergence treatment, Abutilon theophrasti Medic.", "setting": "[1]; dose 15 g a.i./hm^2", "value": 100, "unit": "%"}, {"measurement": "Growth inhibition rate, Post-emergence treatment, Abutilon theophrasti Medic.", "setting": "[1]; dose 37.5 g a.i./hm^2", "value": 98, "unit": "%"}, {"measurement": "Growth inhibition rate, Post-emergence treatment, Abutilon theophrasti Medic.", "setting": "[1]; dose 150 g a.i./hm^2", "value": 100, "unit": "%"}, {"measurement": "Growth inhibition rate, Post-emergence treatment, Abutilon theophrasti Medic.", "setting": "[1]; dose 600 g a.i./hm^2", "value": 100, "unit": "%"}, {"measurement": "Growth inhibition rate, Pre-emergence treatment, Abutilon theophrasti Medic.", "setting": "[1]; dose 7.5 g a.i./hm^2", "value": 98, "unit": "%"}, {"measurement": "Growth inhibition rate, Pre-emergence treatment, Abutilon theophrasti Medic.", "setting": "[1]; dose 15 g a.i./hm^2", "value": 100, "unit": "%"}, {"measurement": "Growth inhibition rate, Pre-emergence treatment, Abutilon theophrasti Medic.", "setting": "[1]; dose 37.5 g a.i./hm^2", "value": 85, "unit": "%"}, {"measurement": "Growth inhibition rate, Pre-emergence treatment, Abutilon theophrasti Medic.", "setting": "[1]; dose 150 g a.i./hm^2", "value": 100, "unit": "%"}, {"measurement": "Growth inhibition rate, Pre-emergence treatment, Abutilon theophrasti Medic.", "setting": "[1]; dose 600 g a.i./hm^2", "value": 100, "unit": "%"}, {"measurement": "Growth inhibition rate, Post-emergence treatment, Echinochloa crus-galli (L.) Beauv.", "setting": "[2]; dose 7.5 g a.i./hm^2", "value": 15, "unit": "%"}, {"measurement": "Growth inhibition rate, Post-emergence treatment, Echinochloa crus-galli (L.) Beauv.", "setting": "[2]; dose 15 g a.i./hm^2", "value": 20, "unit": "%"}, {"measurement": "Growth inhibition rate, Post-emergence treatment, Echinochloa crus-galli (L.) Beauv.", "setting": "[2]; dose 37.5 g a.i./hm^2", "value": 25, "unit": "%"}, {"measurement": "Growth inhibition rate, Post-emergence treatment, Echinochloa crus-galli (L.) Beauv.", "setting": "[2]; dose 150 g a.i./hm^2", "value": 60, "unit": "%"}, {"measurement": "Growth inhibition rate, Post-emergence treatment, Echinochloa crus-galli (L.) Beauv.", "setting": "[2]; dose 600 g a.i./hm^2", "value": 95, "unit": "%"}, {"measurement": "Growth inhibition rate, Pre-emergence treatment, Echinochloa crus-galli (L.) Beauv.", "setting": "[2]; dose 7.5 g a.i./hm^2", "value": 5, "unit": "%"}, {"measurement": "Growth inhibition rate, Pre-emergence treatment, Echinochloa crus-galli (L.) Beauv.", "setting": "[2]; dose 15 g a.i./hm^2", "value": 10, "unit": "%"}, {"measurement": "Growth inhibition rate, Pre-emergence treatment, Echinochloa crus-galli (L.) Beauv.", "setting": "[2]; dose 37.5 g a.i./hm^2", "value": 15, "unit": "%"}, {"measurement": "Growth inhibition rate, Pre-emergence treatment, Echinochloa crus-galli (L.) Beauv.", "setting": "[2]; dose 150 g a.i./hm^2", "value": 80, "unit": "%"}, {"measurement": "Growth inhibition rate, Pre-emergence treatment, Echinochloa crus-galli (L.) Beauv.", "setting": "[2]; dose 600 g a.i./hm^2", "value": 100, "unit": "%"}, {"measurement": "Growth inhibition rate, Post-emergence treatment, Setaria glauca (L.) Beauv.", "setting": "[3]; dose 7.5 g a.i./hm^2", "value": 25, "unit": "%"}, {"measurement": "Growth inhibition rate, Post-emergence treatment, Setaria glauca (L.) Beauv.", "setting": "[3]; dose 15 g a.i./hm^2", "value": 30, "unit": "%"}, {"measurement": "Growth inhibition rate, Post-emergence treatment, Setaria glauca (L.) Beauv.", "setting": "[3]; dose 37.5 g a.i./hm^2", "value": 45, "unit": "%"}, {"measurement": "Growth inhibition rate, Post-emergence treatment, Setaria glauca (L.) Beauv.", "setting": "[3]; dose 150 g a.i./hm^2", "value": 70, "unit": "%"}, {"measurement": "Growth inhibition rate, Post-emergence treatment, Setaria glauca (L.) Beauv.", "setting": "[3]; dose 600 g a.i./hm^2", "value": 98, "unit": "%"}, {"measurement": "Growth inhibition rate, Pre-emergence treatment, Setaria glauca (L.) Beauv.", "setting": "[3]; dose 7.5 g a.i./hm^2", "value": 65, "unit": "%"}, {"measurement": "Growth inhibition rate, Pre-emergence treatment, Setaria glauca (L.) Beauv.", "setting": "[3]; dose 15 g a.i./hm^2", "value": 80, "unit": "%"}, {"measurement": "Growth inhibition rate, Pre-emergence treatment, Setaria glauca (L.) Beauv.", "setting": "[3]; dose 37.5 g a.i./hm^2", "value": 30, "unit": "%"}, {"measurement": "Growth inhibition rate, Pre-emergence treatment, Setaria glauca (L.) Beauv.", "setting": "[3]; dose 150 g a.i./hm^2", "value": 85, "unit": "%"}, {"measurement": "Growth inhibition rate, Pre-emergence treatment, Setaria glauca (L.) Beauv.", "setting": "[3]; dose 600 g a.i./hm^2", "value": 100, "unit": "%"}, {"measurement": "Growth inhibition rate, Post-emergence treatment, Zinnia elegans Jacq.", "setting": "Zinnia elegans Jacq.; dose 7.5 g a.i./hm^2", "value": 98, "unit": "%"}, {"measurement": "Growth inhibition rate, Post-emergence treatment, Zinnia elegans Jacq.", "setting": "Zinnia elegans Jacq.; dose 15 g a.i./hm^2", "value": 100, "unit": "%"}, {"measurement": "Growth inhibition rate, Post-emergence treatment, Zinnia elegans Jacq.", "setting": "Zinnia elegans Jacq.; dose 37.5 g a.i./hm^2", "value": 100, "unit": "%"}, {"measurement": "Growth inhibition rate, Post-emergence treatment, Zinnia elegans Jacq.", "setting": "Zinnia elegans Jacq.; dose 150 g a.i./hm^2", "value": 100, "unit": "%"}, {"measurement": "Growth inhibition rate, Post-emergence treatment, Zinnia elegans Jacq.", "setting": "Zinnia elegans Jacq.; dose 600 g a.i./hm^2", "value": 100, "unit": "%"}, {"measurement": "Growth inhibition rate, Pre-emergence treatment, Zinnia elegans Jacq.", "setting": "Zinnia elegans Jacq.; dose 7.5 g a.i./hm^2", "value": 20, "unit": "%"}, {"measurement": "Growth inhibition rate, Pre-emergence treatment, Zinnia elegans Jacq.", "setting": "Zinnia elegans Jacq.; dose 15 g a.i./hm^2", "value": 30, "unit": "%"}, {"measurement": "Growth inhibition rate, Pre-emergence treatment, Zinnia elegans Jacq.", "setting": "Zinnia elegans Jacq.; dose 37.5 g a.i./hm^2", "value": 45, "unit": "%"}, {"measurement": "Growth inhibition rate, Pre-emergence treatment, Zinnia elegans Jacq.", "setting": "Zinnia elegans Jacq.; dose 150 g a.i./hm^2", "value": 100, "unit": "%"}, {"measurement": "Growth inhibition rate, Pre-emergence treatment, Zinnia elegans Jacq.", "setting": "Zinnia elegans Jacq.; dose 600 g a.i./hm^2", "value": 100, "unit": "%"}, {"measurement": "pre-emergence and post-emergence herbicidal activity against broad-leaf weeds and grass weeds", "setting": "[4]", "value": "good"}]}
{"smiles": "Cn1c(C(F)(F)F)cc(=O)n(-c2cc(C3=NOC(C)(COC(=O)CCl)C3)c(Cl)cc2F)c1=O", "note": "(stereo not drawn) [Compound 50]", "values": [{"measurement": "Growth inhibition rate, Post-emergence treatment, Abutilon theophrasti Medic.", "setting": "[1]; dose 37.5 g a.i./hm^2", "value": 100, "unit": "%"}, {"measurement": "Growth inhibition rate, Post-emergence treatment, Abutilon theophrasti Medic.", "setting": "[1]; dose 150 g a.i./hm^2", "value": 100, "unit": "%"}, {"measurement": "Growth inhibition rate, Post-emergence treatment, Abutilon theophrasti Medic.", "setting": "[1]; dose 600 g a.i./hm^2", "value": 100, "unit": "%"}, {"measurement": "Growth inhibition rate, Pre-emergence treatment, Abutilon theophrasti Medic.", "setting": "[1]; dose 37.5 g a.i./hm^2", "value": 0, "unit": "%"}, {"measurement": "Growth inhibition rate, Pre-emergence treatment, Abutilon theophrasti Medic.", "setting": "[1]; dose 150 g a.i./hm^2", "value": 35, "unit": "%"}, {"measurement": "Growth inhibition rate, Pre-emergence treatment, Abutilon theophrasti Medic.", "setting": "[1]; dose 600 g a.i./hm^2", "value": 100, "unit": "%"}, {"measurement": "Growth inhibition rate, Post-emergence treatment, Echinochloa crus-galli (L.) Beauv.", "setting": "[2]; dose 37.5 g a.i./hm^2", "value": 10, "unit": "%"}, {"measurement": "Growth inhibition rate, Post-emergence treatment, Echinochloa crus-galli (L.) Beauv.", "setting": "[2]; dose 150 g a.i./hm^2", "value": 30, "unit": "%"}, {"measurement": "Growth inhibition rate, Post-emergence treatment, Echinochloa crus-galli (L.) Beauv.", "setting": "[2]; dose 600 g a.i./hm^2", "value": 80, "unit": "%"}, {"measurement": "Growth inhibition rate, Pre-emergence treatment, Echinochloa crus-galli (L.) Beauv.", "setting": "[2]; dose 37.5 g a.i./hm^2", "value": 0, "unit": "%"}, {"measurement": "Growth inhibition rate, Pre-emergence treatment, Echinochloa crus-galli (L.) Beauv.", "setting": "[2]; dose 150 g a.i./hm^2", "value": 10, "unit": "%"}, {"measurement": "Growth inhibition rate, Pre-emergence treatment, Echinochloa crus-galli (L.) Beauv.", "setting": "[2]; dose 600 g a.i./hm^2", "value": 80, "unit": "%"}, {"measurement": "Growth inhibition rate, Post-emergence treatment, Setaria glauca (L.) Beauv.", "setting": "[3]; dose 37.5 g a.i./hm^2", "value": 15, "unit": "%"}, {"measurement": "Growth inhibition rate, Post-emergence treatment, Setaria glauca (L.) Beauv.", "setting": "[3]; dose 150 g a.i./hm^2", "value": 65, "unit": "%"}, {"measurement": "Growth inhibition rate, Post-emergence treatment, Setaria glauca (L.) Beauv.", "setting": "[3]; dose 600 g a.i./hm^2", "value": 98, "unit": "%"}, {"measurement": "Growth inhibition rate, Pre-emergence treatment, Setaria glauca (L.) Beauv.", "setting": "[3]; dose 37.5 g a.i./hm^2", "value": 0, "unit": "%"}, {"measurement": "Growth inhibition rate, Pre-emergence treatment, Setaria glauca (L.) Beauv.", "setting": "[3]; dose 150 g a.i./hm^2", "value": 30, "unit": "%"}, {"measurement": "Growth inhibition rate, Pre-emergence treatment, Setaria glauca (L.) Beauv.", "setting": "[3]; dose 600 g a.i./hm^2", "value": 90, "unit": "%"}, {"measurement": "Growth inhibition rate, Post-emergence treatment, Zinnia elegans Jacq.", "setting": "Zinnia elegans Jacq.; dose 37.5 g a.i./hm^2", "value": 98, "unit": "%"}, {"measurement": "Growth inhibition rate, Post-emergence treatment, Zinnia elegans Jacq.", "setting": "Zinnia elegans Jacq.; dose 150 g a.i./hm^2", "value": 100, "unit": "%"}, {"measurement": "Growth inhibition rate, Post-emergence treatment, Zinnia elegans Jacq.", "setting": "Zinnia elegans Jacq.; dose 600 g a.i./hm^2", "value": 100, "unit": "%"}, {"measurement": "Growth inhibition rate, Pre-emergence treatment, Zinnia elegans Jacq.", "setting": "Zinnia elegans Jacq.; dose 37.5 g a.i./hm^2", "value": 0, "unit": "%"}, {"measurement": "Growth inhibition rate, Pre-emergence treatment, Zinnia elegans Jacq.", "setting": "Zinnia elegans Jacq.; dose 150 g a.i./hm^2", "value": 30, "unit": "%"}, {"measurement": "Growth inhibition rate, Pre-emergence treatment, Zinnia elegans Jacq.", "setting": "Zinnia elegans Jacq.; dose 600 g a.i./hm^2", "value": 90, "unit": "%"}, {"measurement": "pre-emergence and post-emergence herbicidal activity against broad-leaf weeds and grass weeds", "setting": "[4]", "value": "good"}]}
